Results published in patent US20020028938A1, “Prostaglandin endoperoxide H synthase biosynthesis inhibitors” (priority 1997, published 2002).

What was measured:
[1] = target: T1, recombinant human Cox-2 (r-hu Cox-2) (Homo sapiens, UniProt P35354); test: Recombinant human PGHS-2 enzyme assay (RHUCX2); assay type: biochemical; conditions: for IC50: read-out: RHUCX2 IC50 (parenthetical value)
T1 construct: made in house; host or cells: baculovirus/Sf9 insect cells (microsomes)
T1 sequence (P35354 18-604): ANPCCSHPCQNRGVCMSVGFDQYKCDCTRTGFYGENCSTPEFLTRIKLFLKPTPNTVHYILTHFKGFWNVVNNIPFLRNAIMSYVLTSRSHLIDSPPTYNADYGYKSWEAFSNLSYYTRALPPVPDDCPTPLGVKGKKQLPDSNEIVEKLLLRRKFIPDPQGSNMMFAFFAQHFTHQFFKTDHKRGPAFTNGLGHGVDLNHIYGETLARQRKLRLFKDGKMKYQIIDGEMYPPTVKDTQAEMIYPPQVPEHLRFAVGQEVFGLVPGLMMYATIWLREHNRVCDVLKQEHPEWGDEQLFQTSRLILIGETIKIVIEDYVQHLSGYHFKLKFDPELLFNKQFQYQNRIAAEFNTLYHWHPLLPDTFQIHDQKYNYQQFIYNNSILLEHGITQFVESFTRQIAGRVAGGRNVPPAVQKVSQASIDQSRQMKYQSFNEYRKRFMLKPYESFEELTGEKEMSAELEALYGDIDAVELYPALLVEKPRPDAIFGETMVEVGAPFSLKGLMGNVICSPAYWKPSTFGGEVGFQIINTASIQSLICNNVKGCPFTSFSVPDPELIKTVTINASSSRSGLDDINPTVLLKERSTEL
Procedure: (§1) To compare the mean responses of the treatment groups, analysis of variance was applied. Percent inhibition values were determined by comparing the individual treatment mean values to the mean of the control group. Linear regression was used to estimate IC50's/ED50's in appropriate assays.
(§2) EIA reagents for prostaglandin determination were purchased from Perseptive Diagnostics, (Cambridge, Mass.). Prostaglandin E2 (PGE2) levels in lavage fluids were determined after the samples were dried under nitrogen and reconstituted with assay buffer. PGE2 levels in enzyme assays or cell culture media were measured against standards prepared in the same milieu. The immunoassays were conducted as recommended by the manufacturer. The EIA was conducted in 96 well microtiter plates (Nunc Roskilde, Denmark) and optical density was measured using a microplate reader (Vmax, Molecular Devices Corp., Menlo Park, Calif.).
(§3) Inhibition of prostaglandin biosynthesis in vitro was evaluated using recombinant human Cox-1 (r-hu Cox1) and Cox-2 (r-hu Cox-2) enzyme assays. […] The reaction was allowed to run for 2.5 minutes at room temperature prior to quenching with HCl and neutralization with NaOH. PGE2 production in the presence and absence of the drug was determined by EIA analysis. The EIA was conducted in 96 well microtiter plates (Nunc Roskilde, Denmark) and optical density was measured using a microplate reader (Vmax, Molecular Devices Corp., Menlo Park, Calif.). EIA reagents for prostaglandin determination were purchased from Perseptive Diagnostics (Cambridge, Mass.). PGE2 levels were measured against standards prepared in the same milieu. The immunoassays were conducted as recommended by the manufacturer.

[2] = target: T2, recombinant human Cox-1 (r-hu Cox1) (Homo sapiens, UniProt P23219); test: Recombinant human PGHS-1 enzyme assay (RHUCX1); assay type: biochemical
T2 construct: made in house; host or cells: baculovirus/Sf9 insect cells (microsomes)
T2 sequence (P23219 24-599): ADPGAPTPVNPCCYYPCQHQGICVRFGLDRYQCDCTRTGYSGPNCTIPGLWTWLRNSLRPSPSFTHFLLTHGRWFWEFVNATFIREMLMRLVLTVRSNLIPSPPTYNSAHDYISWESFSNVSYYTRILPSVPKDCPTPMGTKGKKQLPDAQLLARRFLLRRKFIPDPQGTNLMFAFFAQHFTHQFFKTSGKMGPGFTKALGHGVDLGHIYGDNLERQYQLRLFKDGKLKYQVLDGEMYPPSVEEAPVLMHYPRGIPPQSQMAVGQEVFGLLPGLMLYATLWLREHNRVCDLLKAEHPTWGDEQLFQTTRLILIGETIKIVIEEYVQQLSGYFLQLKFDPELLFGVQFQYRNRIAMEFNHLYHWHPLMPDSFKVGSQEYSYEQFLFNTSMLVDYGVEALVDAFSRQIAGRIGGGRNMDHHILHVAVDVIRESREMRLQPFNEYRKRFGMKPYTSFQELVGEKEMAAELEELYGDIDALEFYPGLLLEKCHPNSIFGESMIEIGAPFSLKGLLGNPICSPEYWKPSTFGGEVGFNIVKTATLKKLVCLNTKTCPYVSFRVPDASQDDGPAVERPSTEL
Procedure: as §1, §2, §3

[3] = 100 μM, read-out: RHUCX1 % Inh. at Dose
[4] = 0.1 μM, read-out: RHUCX2 % Inh. at Dose
[5] = 1 μM, read-out: RHUCX2 % Inh. at Dose

| RHUCX2 % Inh. at Dose (μM) ([1]; 0.1 μM) | RHUCX2 % Inh. at Dose (μM) ([1]; 1 μM) | RHUCX1 % Inh. at Dose (μM) ([2]; 100 μM) | inhibition at 100 µM [2, 3] [%] | Compound | also measured |
| --- | --- | --- | --- | --- | --- |
| 36 @ 0.1% | 86 @ 1% |  |  | CS(=O)(=O)c1ccc(-c2cnn(-c3csc4ccccc34)c(=O)c2-c2ccc(F)cc2)cc1 [Example 107] | RHUCX1 % Inh. at Dose (μM) ([2]; 1 μM): 50 @ 1%; RHUCX1 % Inh. at Dose (μM) ([2]; 10 μM): 88 @ 10% |
| 50 @ 0.1% | 93 @ 1% | 5 @ 100% |  | CS(=O)(=O)c1ccc(-c2cnn(-c3cccc(Br)c3)c(=O)c2Oc2ccc(F)cc2)cc1 [Example 110] |  |
|  |  | 23 @ 100% |  | CC1CCC(n2ncc(-c3ccc(S(C)(=O)=O)cc3)c(-c3ccc(F)cc3)c2=O)C1 (stereo not drawn) [Example 133] | IC50 [1]: 358 nM |
| 51 @ 0.1% | 97 @ 1% | 25 @ 100% |  | CS(=O)(=O)c1ccc(-c2cnn(-c3ccoc3)c(=O)c2-c2ccc(F)cc2)cc1 [Example 183, 2-(3-Furyl)-4-(4-fluorophenyl)-5-[4-(methylsulfonyl)phenyl]-3(2H)-pyrdazinone] |  |
| 55 @ 0.1% | 79 @ 1% | 0 @ 100% |  | CC(C)CCc1c(-c2ccc(S(C)(=O)=O)cc2)cnn(CC(F)(F)F)c1=O [Example 209] | RHUCX2 % Inh. at Dose (μM) ([1]; 0.01 μM): 40 @ 0.01% |
|  |  |  | 0 | CS(=O)(=O)c1ccc(-c2cnn(CC(F)(F)F)c(=O)c2-c2ccc(C(F)(F)F)cc2)cc1 [Example 213, 2-(2,2,2-Trifluoroethyl)-4-(4-trifluoromethylphenyl)-5-[4-(methylsulfonyl)phenyl]-3(2H)-pridazinone] | IC50 [1]: 812 nM |
|  |  |  | 20 | Cc1ccc(-c2c(-c3ccc(S(C)(=O)=O)cc3)cnn(CC(F)(F)F)c2=O)cc1F [Example 219, 2-(2,2,2-Trifluoroethyl)-4-(3-fluoro-4-methylphenyl)-5-[4-(methylsulfonyl)phenyl]-3(2H)-pyridazinone] | inhibition at 0.1 µM [1, 4]: 75%; inhibition at 1 µM [1, 5]: 90% |
|  |  |  | 51 | COc1c(F)cc(-c2c(-c3ccc(S(C)(=O)=O)cc3)cnn(CC(F)(F)F)c2=O)cc1F [Example 220, 2-(2,2,2-Trifluoroethyl)-4-(3,5-difluoro-4-methoxyphenyl)-5-[4-(methylsulfonyl)phenyl]-3(2H)-pyridazinone] | inhibition at 0.1 µM [1, 4]: 90%; inhibition at 1 µM [1, 5]: 96%; inhibition at 1 µM ([2]; 1 μM, read-out: RHUCX1 % Inh. at Dose): 38% |
| 68 @ 0.1% | 90 @ 1% | 7 @ 100% |  | CS(=O)(=O)c1ccc(-c2cnn(-c3ccc(F)cc3)c(=O)c2C#Cc2ccccc2)cc1 [Example 231, 2-(4-Fluorophenyl)-4-(pheylethynyl)-5-[4-(methylsulfonl)phenyl]-3(2H)-pyridazinone] |  |
| 89 @ 0.1% |  |  |  | CS(=O)(=O)c1ccc(-c2cnn(-c3ccc(F)c(F)c3)c(=O)c2-c2cccs2)cc1 [Example 237, 2-(3,4-Difluorophenyl)-4-(2-thienyl)-5-[4-(methylsulfonyl)phenyl]-3(2H)-pridazinone] | RHUCX1 % Inh. at Dose (μM) ([2]; 1 μM): 44 @ 1%; RHUCX1 % Inh. at Dose (μM) ([2]; 10 μM): 54 @ 10% |
|  |  |  | 8 | O=c1c(-c2ccc(F)cc2)c(-c2ccc(S(=O)(=O)C(F)(F)F)cc2)cnn1Cc1ccccc1 [Example 260, 2-Benzyl-4-(4-fluorophenyl)-5-[4-(trifluoromethylsulfonyl)phenyl]-3(2H)-pyridazinone] | inhibition at 10 µM ([1]; 10 μM, read-out: RHUCX2 % Inh. at Dose): 2% |
| 53 @ 0.1% | 76 @ 1% | 1 @ 100% |  | CS(=O)(=O)c1ccc(-c2cnn(CC(F)(F)F)c(=O)c2Oc2cc(C(F)(F)F)ccc2F)cc1 [Example 263, 2-(2,2,2-Trifluoroethyl)-4-(2-fluoro-5-trifluoromethylphenoxy)-5-[4-(methylsulfonyl)phenyl]-3(2H)-pridazinone] | RHUCX2 % Inh. at Dose (μM) ([1]; 10 μM): 85 @ 10% |
| 55 @ 0.1% | 70 @ 1% | 0 @ 100% |  | COc1ccc(CCOc2c(-c3ccc(S(C)(=O)=O)cc3)cnn(CC(F)(F)F)c2=O)cc1OC [Example 272] |  |
|  | 42 @ 1% | 16 @ 100% |  | CS(=O)(=O)c1ccc(-c2cnn(CC(F)(F)F)c(=O)c2OCCN2CCOCC2)cc1 [Example 273] | RHUCX2 % Inh. at Dose (μM) ([1]; 10 μM): 54 @ 10% |
| 54 @ 0.1% | 71 @ 1% | 0 @ 100% |  | CS(=O)(=O)c1ccc(-c2cnn(CC(F)(F)F)c(=O)c2SC2CCCC2)cc1 [Example 283] | RHUCX2 % Inh. at Dose (μM) ([1]; 10 μM): 90 @ 10% |
|  | 4 @ 1% | 7 @ 100% |  | CS(=O)(=O)c1ccc(-c2cnn(CC(F)(F)F)c(=O)c2Nc2ccc(F)cc2F)cc1 [Example 314] | RHUCX2 % Inh. at Dose (μM) ([1]; 10 μM): 51 @ 10% |
|  |  |  | 23 | CS(=O)(=O)c1ccc(-c2cnn(Cc3ccccc3)c(=O)c2-c2cc3ccccc3o2)cc1 [Example 318, 2-Benzyl-4-(2-benzofuranyl)-5-[4-(methylsulfonyl)phenyl]-3(2H)-pyridazinone] | inhibition at 0.1 µM [1, 4]: 77%; inhibition at 1 µM [1, 5]: 97% |
| 36 @ 0.1% | 45 @ 1% | ∠@ 100 |  | CN(Cc1ccccc1)c1c(-c2ccc(S(C)(=O)=O)cc2)cnn(-c2cccc(Cl)c2)c1=O [Example 354, 2-(3-Chlorophenyl)-4-(N-methylbenzylamnino)-5-[4-(methylsulfonyl)phenyl]-3(2H)-pyridazinone] | RHUCX2 % Inh. at Dose (μM) ([1]; 10 μM): 45 @ 10% |
|  | 49 @ 1% | 1 @ 100% |  | CS(=O)(=O)c1ccc(-c2cnn(-c3cccc(Cl)c3)c(=O)c2C2CCCC2)cc1 [Example 362, 2-(3-Chlorophenyl)-4-(cyclopentyl)-5-[4-(methylonylsulfonyl)phenyl]-(2H)-pyridazinone] | RHUCX2 % Inh. at Dose (μM) ([1]; 10 μM): 84 @ 10% |
| 65 @ 0.1% | 76 @ 1% |  |  | Cc1ccc(-c2c(-c3ccc(S(N)(=O)=O)cc3)cnn(-c3ccc(F)cc3)c2=O)cc1F [Example 387] | RHUCX2 % Inh. at Dose (μM) ([1]; 0.01 μM): 56 @ 0.01%; RHUCX1 % Inh. at Dose (μM) ([2]; 1 μM): 60 @ 1%; RHUCX1 % Inh. at Dose (μM) ([2]; 10 μM): 57 @ 10% |
|  |  |  | 15 | NS(=O)(=O)c1ccc(-c2cnn(-c3cccc(Cl)c3)c(=O)c2CCc2ccccc2)cc1 [Example 393, 2-(3-Chlorophenyl)-4-(phenethyl)-5-[4-(aminosulfonyl)phenyl]-3(2H)-pyridazinone] | inhibition at 0.1 µM [1, 4]: 58%; inhibition at 1 µM [1, 5]: 85% |
|  |  |  | 31 | CC(C)COc1c(-c2ccc(S(N)(=O)=O)c(F)c2)cnn(-c2cccc(Cl)c2)c1=O [Example 412] | IC50 [1]: 2 nM |
|  |  |  |  | CC(C)CCCc1c(-c2ccc(S(C)(=O)=O)cc2)cnn(-c2cccc(Cl)c2)c1=O [Example 421, 2-(3-Chlorophenyl)-4-(4-methylpentyl)-5-[4-(methylsulfonyl)phenyl]-3(2H)-pyridazinone] | inhibition at 0.01 µM ([1]; 0.01 μM, read-out: RHUCX2 % Inh. at Dose): 38%; inhibition at 0.1 µM [1, 4]: 81%; inhibition at 1 µM [1, 5]: 92%; IC50 ([2]; read-out: RHUCX1 IC50 (parenthetical value)): 269 nM |
| 37 @ 0.1% | 52 @ 1% | 53 @ 100% |  | CC(C)=CCOc1c(-c2ccc(S(C)(=O)=O)cc2)cnn(-c2ccc(F)cc2)c1=O [Example 422] | RHUCX1 % Inh. at Dose (μM) ([2]; 1 μM): 76 @ 1%; RHUCX1 % Inh. at Dose (μM) ([2]; 10 μM): 82 @ 10% |

| Compound | RHUCX2 % Inh. at Dose (μM) ([1]; 0.1 μM) | RHUCX2 % Inh. at Dose (μM) ([1]; 1 μM) | RHUCX1 % Inh. at Dose (μM) ([2]; 100 μM) | inhibition at 100 µM [2, 3] [%] | also measured |
| --- | --- | --- | --- | --- | --- |
| CC(C)CCOc1c(-c2ccc(S(N)(=O)=O)cc2)cnn(-c2ccc(F)cc2)c1=O [Example 398, 2-(4-Fluorophenyl)-4-(3-methylbutoxy)-5-[4-(aminosulfonyl)phenyl]-3(2H)-pyrdazinone] |  |  |  | 26 | IC50 [1]: 202 nM |
